Source: patent US4620871A (priority 1980, dated 1986)

Assays:
Pannonia vine variety = experiment: Berry yield and sugar content of vine, Pannonia (Example 33); type: in vivo; details: for Berry yield: 3 x 2 kg/ha, control 216; for Sugar content: control 13.0; for Sugar yield: control 28.08
Description: (§1) Vine stands were sprayed with the compositions according to the invention to examine their effects exerted on the berry yield and sugar content. The compositions, diluted with water, were sprayed three times onto the plants. The first treatment was performed prior to flowering, the second one three weeks later, and the third one six weeks after the first one. The dose applied was 2 kg/ha in each of the treatments.
(§2) Comparative tests were also performed with commonly used growth regulating compositions, i.e. CCC (chlorocholine chloride), Ethrel (or Etefon; 2-chloroethylphosphonic acid) and Nevirol (N-phenyl-phthalaiminic acid). The results were compared to those observed with the untreated controls.
(§3) Two vine varieties, Pannonia and Egri leanyka, were involved in the tests.

[1] = system: Egri leanyka vine variety; experiment: Berry yield and sugar content of vine, Egri leanyka (Example 33); type: in vivo; details: for Berry yield: 3 x 2 kg/ha, control 151.15; for Sugar content: control 16.7; for Sugar yield: control 18.93
Description: as §1, §2, §3

Pinto bean = experiment: Stimulation of membrane activity (nitrate uptake), Pinto bean (Example 25); type: in vivo; details: zeatin 20, kinetin/benzyladenine 30, others 200 ppm; for Protein nitrogen / Total nitrogen: 2 weeks; for Protein nitrogen: control 2.4; for Total nitrogen: control 3.8; for Protein nitrogen content in % of the total nitrogen content: control 63
Description: The tests were performed on Pinto bean. The plants were treated with solutions of an endogeneous cytokinin (zeatin), synthetic cytokinins and membraneactive regulators according to the invention, respectively, and the leaves of the plants were analyzed 2 weeks after the treatment.

Pinto beans = experiment: Preservation of chlorophyll in Pinto beans (Example 17); type: in vivo; details: zeatin 20 ppm, kinetin/benzyladenine 30 ppm, others 200 ppm; for Extinction: 665 mμ, 200 mg fresh weight, 2 weeks
Description: Endogeneous and synthetic cytokinins were applied as comparative substances. Solutions with varying concentrations, but always more dilute than 10^-4 moles, were applied in the tests.
The tests were performed on Pinto beans. The plants were treated with an endogenous cytokinin (zeatine), synthetic cytokinins (kinetin, benzyladenine) or cytokinin-like compounds, respectively, and the chlorophyll content of the leaves was determined 2 weeks after the treatment by measuring the extinction of the extract of the leaves at 665 mμ.

Tobacco callus = experiment: Growth of tobacco callus vs kinetin (Example 14); type: cell-based; details: 2 ppm active agent; for Dry weight of the callus / Speed of growth: kinetin 1 ppm; for activity at 2 ppm: Nicotiana tabacum, 504 h, kinetin 1 ppm = 100, read-out: Speed of growth, Index %
Description: An untreated culture medium served as control. Tobacco callus was grown on the treated and untreated culture media (incubation period: 3 weeks), and the daily growth, the increase in cell number and the frequency of mitosis were measured according to the method of Skoog.
The test described in Example 13 was repeated so that a culture medium containing 1 ppm of kinetin was used as control, and the compositions according to the invention were applied in amounts corresponding to 2 ppm of active agent.

leaves of Pinto bean [2] = experiment: Protein synthesis, glycine-2-14C incorporation in Pinto bean leaves (Example 19); details: 18 hours, zeatin 20 ppm, kinetin/benzyladenine 30 ppm, others 200 ppm; for Radioactivity of the TCA-insoluble fraction: control 3.17
Description: The tests were performed on leaves of Pinto bean. The leaf segments were treated with an endogeneous cytokinin (zeatin), synthetic cytokinins (kinetin, benzyladenine) or with the compositions according to the invention, respectively, by floating the leaf segments on the solution of the test substance for 18 hours. Thereafter the leaf segments were exposed to a labelled amino acid (glycine-2-^14 C) for 3 hours, and the incorporation of the amino acid was determined by radiometry.

[3] = system: callus isolated from Datura innoxia Mill. roots; experiment: Growth of callus isolated from Datura innoxia Mill. roots (Example 15); type: cell-based; details: with kinetin (2 ppm)
leaves of Pinto beans = experiment: Stimulation of carbon dioxide fixation, Pinto beans (Example 21); details: for Radioactivity A: A = in the light, control 2.14; for Radioactivity A / Radioactivity B / Radioactivity C / Stimulation: zeatin 20, kinetin/benzyladenine 30, others 200 ppm; for Radioactivity B: B = in the dark, control 0.18; for Radioactivity C: C = photosynthetic, control 2.32
Description: The tests were performed on leaves of Pinto beans. The leaf segments were treated with an endogeneous cytokinin (zeatin), synthetic cytokinins (kinetin, benzyladenine) or with the compositions according to the invention, respectively, by floating the leaf segments on the solution of the test substance for 18 hours, thereafter the leaf segments were exposed to labelled carbon dioxide (activity: 100 μCi/5000 ml of ^14 CO2) for 0.5 hours.

leaves of Pinto bean [4] = experiment: Stimulation of photolytic activity, HTO, Pinto bean (Example 23); details: 18 hours, zeatin 20, kinetin/benzyladenine 30, others 200 ppm; for Photolytic activity: control 7.64
Description: The stimulating effects of an endogeneous cytokinin (zeatin), synthetic cytokinins (kinetin, benzyladenine) and the cytokinin-like regulators according to the invention exerted on the photolytic activity connected to the decomposition of HTO were examined on leaves of Pinto bean. The leaf discs were floated for 18 hours on solutions of the substances under examination, and then exposed to a radioactivity of 200 μCi/100 ml for one hour to effect photolysis of HTO.

Soybean = experiment: Total and protein nitrogen content of soybean (Example 39); type: in vivo; details: for Protein nitrogen content: control 1.9; for Total nitrogen content: control 2.6; for Protein nitrogen content, increase / Total nitrogen content, increase: in vivo
From the text: The effects of 1,4-dihydroxyphthalazine and salts thereof exerted on the total nitrogen content and protein nitrogen content of soybean were examined as described in Example 27. The plants were sprayed with the compositions according to the invention at the beginning of the flowering of the apical cluster.

| Compound | Sugar content, increase (Pannonia vine variety) [%] | Berry yield (Pannonia vine variety) [q/ha] | Sugar content (Pannonia vine variety) [%] | Sugar yield (Pannonia vine variety) [q/ha] | Berry yield [1] [q/ha] | Sugar content [1] [%] | Sugar yield [1] [q/ha] | Protein nitrogen (Pinto bean) | Total nitrogen (Pinto bean) | Protein nitrogen, stimulation (Pinto bean) [%] | Protein nitrogen content in % of the total nitrogen content (Pinto bean) [%] | Extinction (Pinto beans) | Promotion (Pinto beans) [%] | Radioactivity of the TCA-insoluble fraction (leaves of Pinto bean [2]) | Radioactivity A (leaves of Pinto beans) [dpm/200 mg fresh weight] | Radioactivity B (leaves of Pinto beans) [dpm/200 mg fresh weight] | Radioactivity C (leaves of Pinto beans) [dpm/200 mg fresh weight] | Stimulation (leaves of Pinto beans) [%] | Stimulation (leaves of Pinto bean [4]) [%] | Photolytic activity (leaves of Pinto bean [4]) | further results |
| --- | --- | --- | --- | --- | --- | --- | --- | --- | --- | --- | --- | --- | --- | --- | --- | --- | --- | --- | --- | --- | --- |
| O=C(O)c1ccccc1C(=O)Nc1ccccc1 [Nevirol, N-phenyl-phthalaiminic acid] | 18.4 | 238 | 15.4 | 36.52 | 169.22 | 16.4 | 20.81 |  |  |  |  |  |  |  |  |  |  |  |  |  | Sugar yield, increase (Pannonia vine variety): 30%; Berry yield, increase [1]: 11.9%; Sugar yield, increase [1]: 9.9% |
| c1coc(CNc2ncnc3[nH]cnc23)c1 [Kinetin] |  |  |  |  |  |  |  | 2.8 % of dry weight | 3.8 % of dry weight | 16.6 | 73 | 1.120 | 66.0 | 5.36 1000 dpm/200 mg fresh weight | 4.15 | 0.37 | 4.52 | 95.2 | 82 | 13.96 dpm/mg of glucose | Dry weight of the callus (Tobacco callus): 174.11 mg; Speed of growth (Tobacco callus): 97.17; activity at 2 ppm (Tobacco callus): 100%; Stimulation (leaves of Pinto bean [2]): 69.4%; Dry substance [3]: 3.52%; Dry weight of the callus [3]: 175.06 mg; Fresh weight of the callus [3]: 4.9694 g; Growth, dry weight [3]: 15.56; Growth, fresh weight [3]: 15.56; Speed of growth [3]: 98.28 mg/day |
| N=C(N)N.Oc1nnc(O)c2ccccc12 [1,4-Dihydroxy-phthalazine monoguanidine salt] |  |  |  |  |  |  |  |  |  |  |  |  |  |  | 3.75 | 0.28 | 3.47 | 50.7 |  |  |  |
| c1ccc(CNc2ncnc3[nH]cnc23)cc1 [Benzyladenine, benzyladenine] |  |  |  |  |  |  |  | 2.8 % of dry weight | 3.8 % of dry weight | 16.6 | 73 | 1.229 | 83.1 | 5.92 1000 dpm/200 mg fresh weight | 4.87 | 0.41 | 5.28 | 128.0 | 125 | 17.21 dpm/mg of glucose | Stimulation (leaves of Pinto bean [2]): 87.0% |
| CCCn1cnc2ccccc21 [N--(n-Propyl)-benzimidazolium chloride] |  |  |  |  |  |  |  |  |  |  |  |  |  |  |  |  |  |  |  |  | Dry weight of the callus (Tobacco callus): 194.09 mg; Speed of growth (Tobacco callus): 116.89; activity at 2 ppm (Tobacco callus): 119% |
| O=P(O)(O)CCCl [Ethrel, 2-chloroethylphosphonic acid] | 7.5 | 194 | 14.0 | 27.2 | 164.61 | 15.7 | 19.38 |  |  |  |  |  |  |  |  |  |  |  |  |  | Berry yield, increase [1]: 8.9%; Sugar yield, increase [1]: 2.3% |
| C/C(=C\CNc1ncnc2[nH]cnc12)CO [Zeatin] |  |  |  |  |  |  |  | 2.8 % of dry weight | 3.8 % of dry weight | 16.6 | 73 | 1.283 | 91.3 | 6.18 1000 dpm/200 mg fresh weight | 5.12 | 0.46 | 5.58 | 140.8 | 108 | 15.94 dpm/mg of glucose | activation at 20 ppm (leaves of Pinto bean [2]; read-out: Stimulation): 95.1%; stimulation of CO2 fixation, comparison in words (leaves of Pinto beans): the most potent stimulating agent |
| NN.Oc1nnc(O)c2ccccc12 [1,4-Dihydroxyphthalazine hydrazine salt] |  |  |  |  |  |  |  |  |  |  |  |  |  |  |  |  |  |  |  |  | Protein nitrogen content (Soybean): 3.1 % of dry substance; Total nitrogen content (Soybean): 3.7 % of dry substance; Protein nitrogen content, increase (Soybean): 63.2%; Total nitrogen content, increase (Soybean): 42.4% |
| C[N+](C)(C)CCCl.[Cl-] [CCC, 2-chloroethyltrimethyl-ammonium chloride] | 23.0 | 175 | 16.0 | 28.0 | 144.61 | 17.0 | 18.44 |  |  |  |  |  |  |  |  |  |  |  |  |  |  |
| NN.NN.Oc1nnc(O)c2ccccc12 [1,4-Dihydroxyphthalazine dihydrazine salt] |  |  |  |  |  |  |  |  |  |  |  |  |  |  |  |  |  |  |  |  | Protein nitrogen content (Soybean): 3.6 % of dry substance; Total nitrogen content (Soybean): 3.9 % of dry substance; Protein nitrogen content, increase (Soybean): 89.5%; Total nitrogen content, increase (Soybean): 50.0% |
